Measurements: paper PMC11494886, “Discovery and design of molecular glue enhancers of CDK12–DDB1 interactions for targeted degradation of cyclin K” (RSC Chemical Biology, 2024)

Experiments:
Cdk12/CycK and DDB1ΔB [1] = target: T1, Cdk12/CycK and DDB1ΔB (Homo sapiens, UniProt Q16531+Q9NYV4, DEL396-705); assay: Dynamic light scattering of SEC peak fractions; assay type: binding; conditions: SEC peak middle fractions, vs negative controls
T1 construct: the Cdk12 (714–1063)/CycK (1–267) complex and the DDB1ΔB protein; made in house; host or cells: Sf9 insect cells (MultiBacTurbo)
T1 sequence (Q9NYV4 714-1063, stated change not applied): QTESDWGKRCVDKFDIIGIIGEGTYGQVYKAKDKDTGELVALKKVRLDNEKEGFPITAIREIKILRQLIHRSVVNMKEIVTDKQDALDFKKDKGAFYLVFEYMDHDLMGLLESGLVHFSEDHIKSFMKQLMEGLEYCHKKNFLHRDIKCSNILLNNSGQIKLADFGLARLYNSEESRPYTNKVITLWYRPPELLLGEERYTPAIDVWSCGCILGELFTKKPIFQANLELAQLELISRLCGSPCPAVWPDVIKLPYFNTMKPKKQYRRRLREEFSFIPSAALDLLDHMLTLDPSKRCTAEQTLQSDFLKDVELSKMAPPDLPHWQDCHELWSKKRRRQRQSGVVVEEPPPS
T1 sequence (O75909 1-267 partner limits assumed): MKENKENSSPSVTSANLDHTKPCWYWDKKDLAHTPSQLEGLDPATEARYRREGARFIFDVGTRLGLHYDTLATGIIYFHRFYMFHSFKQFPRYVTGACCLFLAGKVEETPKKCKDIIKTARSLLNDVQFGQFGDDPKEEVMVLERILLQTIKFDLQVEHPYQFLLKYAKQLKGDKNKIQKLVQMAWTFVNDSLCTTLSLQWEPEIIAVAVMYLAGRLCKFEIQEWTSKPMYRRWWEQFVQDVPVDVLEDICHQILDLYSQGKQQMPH
T1 sequence (Q16531 with tags, fused parts or gaps DEL396-705): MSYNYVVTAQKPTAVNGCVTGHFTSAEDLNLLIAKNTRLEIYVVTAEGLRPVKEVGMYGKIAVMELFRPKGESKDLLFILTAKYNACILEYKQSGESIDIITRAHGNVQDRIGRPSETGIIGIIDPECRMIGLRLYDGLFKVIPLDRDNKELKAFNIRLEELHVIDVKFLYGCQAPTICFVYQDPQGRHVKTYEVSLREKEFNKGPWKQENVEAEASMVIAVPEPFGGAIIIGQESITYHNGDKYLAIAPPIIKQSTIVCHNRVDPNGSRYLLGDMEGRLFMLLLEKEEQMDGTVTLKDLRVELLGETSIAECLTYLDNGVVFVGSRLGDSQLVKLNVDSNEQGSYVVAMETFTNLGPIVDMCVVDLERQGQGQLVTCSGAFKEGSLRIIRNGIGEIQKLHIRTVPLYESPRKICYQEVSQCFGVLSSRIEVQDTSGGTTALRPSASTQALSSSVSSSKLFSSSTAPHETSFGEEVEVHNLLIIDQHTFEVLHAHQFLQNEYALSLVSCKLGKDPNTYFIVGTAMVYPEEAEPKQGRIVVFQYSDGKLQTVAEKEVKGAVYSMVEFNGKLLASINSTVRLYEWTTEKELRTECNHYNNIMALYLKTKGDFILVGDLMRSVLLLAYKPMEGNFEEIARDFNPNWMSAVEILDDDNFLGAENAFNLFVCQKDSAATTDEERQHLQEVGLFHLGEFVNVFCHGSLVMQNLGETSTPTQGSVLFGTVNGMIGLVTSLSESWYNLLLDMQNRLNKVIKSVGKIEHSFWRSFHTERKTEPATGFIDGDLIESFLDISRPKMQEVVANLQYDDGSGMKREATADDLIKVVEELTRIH
Protocol: To evaluate particle size distribution in liquid solution, dynamic light scattering was employed. Specifically, 10 μL fractions from the central region of peaks obtained in analytical size exclusion chromatography runs were analyzed. This analysis was performed using a DynaPro NanoStar 672 (Wyatt Technology) in a disposable DLS MicroCuvette (Wyatt Technology), while maintaining a constant temperature of 25 °C. Each measurement was conducted with an acquisition time of 3 s, and each data point depicted in the Results section represents the average of 20 individual DLS measurements. The hydrodynamic radius of the protein samples was determined using the processing and analysis software DYNAMICS.

cyclin K = assay: Immunoblot of cyclin K levels in MDA-MB-231 cells; assay type: cell-based, human; conditions: SR-4835 500 nM, SR-4784 1-2 μM 2 hours, SR-4784-PAP 2 μM 2 hours
Protocol: THZ531 was used as a negative control as it is known to make a covalent bond with Cys1039 in a C-terminal extension of the kinase domain, thereby preventing this helix-loop-helix (HLH)-like fold from binding in a cleft between the DDB1 BPA and BPC domains (Fig. 1B, right panels). […] An immunofluorescence-based assay developed for visualizing loss of nuclear cyclin K also confirmed the above observations (Fig. 1H and Fig. S1, ESI ^†).
Total cell lysates were prepared using RIPA lysis buffer (Millipore Sigma) supplemented with protease and phosphatase inhibitors (Roche). Protein concentrations were estimated using the BCA protein assay kit (Pierce, Thermo Fisher Scientific). Equal amounts of proteins were separated using NuPAGE 4–12% Bis-Tris gels (Thermo Fisher Scientific). For CLICK chemistry pulldown experiments, proteins in the eluates were resolved using 3–8% Tris–acetate gels (Thermo Fisher Scientific). Proteins were transferred to nitrocellulose membranes using NuPAGE transfer buffer (Thermo Fisher Scientific). Membranes were blocked in LI-COR blocking buffer for 1 hour at room temperature and then probed with primary antibodies diluted in the same blocking buffer overnight at 4 °C. To detect the primary antibodies, membranes were incubated with IR-680 or IR-800 conjugated secondary antibodies (LI-COR) diluted in LI-COR blocking buffer at room temperature for 1 hour. Washes with 0.01% Tween-phosphate buffer were performed after primary and secondary antibody incubation steps. Signals from the membrane were recorded by scanning on a LI-COR Odyssey imager. Bands were quantified using Image Studio Lite (LI-COR Biosciences) or the ImageJ program.
To visualize the degradation of cyclin K, total cell lysates were subjected to SDS-PAGE and western blotting.

Cdk12/CycK and DDB1ΔB [2] = target: T1, Cdk12/CycK and DDB1ΔB; assay: Analytical size-exclusion chromatography of DDB1ΔB and Cdk12/CycK; assay type: binding; conditions: 20 μM proteins, 60 μM compound, vs DMSO and THZ531
Protocol: Analytical size-exclusion chromatography was employed to investigate compound-induced protein–protein interactions between the heterodimeric Cdk12 (714–1063)/CycK (1–267) complex and the RING E3 ligase-associated adaptor protein DDB1ΔB. The analysis was conducted on an Agilent 1260 Infinity II HPLC system (Agilent Technologies), coupled with a Superdex 200 Increase 3.2/300 column (Cytiva), pre-equilibrated in Cdk12 SEC buffer (20 mM Hepes pH 7.8, 400 mM NaCl, 1 mM TCEP) supplemented with 1 g L^−1 carboxymethyl-dextran. Purified proteins, combined in equimolar ratios (20 μM Cdk12/CycK and DDB1ΔB, respectively) were supplemented with 3-fold molar excess of small molecular compounds. The resulting protein mixtures were diluted to a final volume of 25 μL using the kinases SEC-buffer ensuring a final DMSO concentration of 2%, followed by an incubation period of 10 min. Upon injection into the analytical system, the chromatography was conducted at a controlled flow rate of 0.05 mL min^−1, with protein absorbance monitored at 280 nm wavelength. Peak fractions were collected drop by drop and subsequently subjected to analysis via dynamic light scattering (DLS) to assess their size distribution, along with SDS-PAGE analysis to determine the composition of the protein complex.

CDK12/cyclin K + DDB1 = target: T2, CDK12/cyclin K + DDB1 (Homo sapiens, UniProt Q16531+Q9NYV4, DEL396-705); assay: Microscale thermophoresis, ternary complex formation; assay type: binding; conditions: MST, labeled DDB1ΔBPB + CDK12/cyclin K
T2 construct: The kinase domain of human CDK12 (Uniprot: Q9NYV4; a.a; 715–1050); GST (N, cleaved yes); made in house; host or cells: Spodoptera frugiperda SF9 insect cells (Bac-to-Bac); CDK12/cyclin K co-infected with S. cerevisiae CAK1
T2 sequence (Q16531 with tags, fused parts or gaps DEL396-705): as above
T2 sequence (Q9NYV4 715-1050, stated change not applied): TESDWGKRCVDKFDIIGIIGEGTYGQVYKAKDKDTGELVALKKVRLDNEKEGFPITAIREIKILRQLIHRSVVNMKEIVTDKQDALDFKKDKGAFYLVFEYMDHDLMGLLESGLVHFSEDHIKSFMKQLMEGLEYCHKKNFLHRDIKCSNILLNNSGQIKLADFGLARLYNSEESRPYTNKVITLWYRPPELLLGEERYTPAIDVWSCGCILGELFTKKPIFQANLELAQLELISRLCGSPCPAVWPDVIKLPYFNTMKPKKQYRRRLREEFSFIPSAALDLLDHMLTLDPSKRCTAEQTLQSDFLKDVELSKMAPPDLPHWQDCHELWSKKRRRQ
T2 sequence (O75909 11-267 partner limits assumed): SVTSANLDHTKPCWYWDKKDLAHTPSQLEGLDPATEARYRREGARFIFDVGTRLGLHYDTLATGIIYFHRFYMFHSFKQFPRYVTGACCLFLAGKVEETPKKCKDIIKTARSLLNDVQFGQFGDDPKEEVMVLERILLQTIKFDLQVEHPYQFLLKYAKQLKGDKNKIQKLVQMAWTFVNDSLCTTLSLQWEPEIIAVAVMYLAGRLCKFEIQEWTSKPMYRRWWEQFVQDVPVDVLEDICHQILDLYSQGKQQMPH
Protocol: Finally, the capacity of small molecules to induce a ternary complex between CDK12/cyclin K and DDB1 in vitro was assessed by microscale thermophoresis (MST). Labeled DDB1ΔBPB was combined with purified CDK12/cyclin K, and fluorescence intensity was monitored with increasing compound concentrations.
Cell pellets were harvested 48 hours post infection via centrifugation and lysed in buffer A (50 mM Tris–HCl (pH 8.0), 200 mM NaCl, 10 mM imidazole, 0.5 mM tris(2-carboxyethyl) phosphine (TCEP)) supplemented with EDTA-free Pierce™ protease inhibitor tablet (Thermo Fisher Scientific). […] The concentrated protein at 2 mg mL^−1 was flash-frozen in liquid nitrogen and stored at −80 °C.
Full-length S. cerevisiae CAK1 (Uniprot: P43568) with an N-terminal His6 tag was subcloned into pFastBac 1 vector. […] The eluted CDK12/cyclin K complex was concentrated to 2 mg mL^−1, flash-frozen in liquid nitrogen and stored at −80 °C.
A protocol to assess ternary binding of molecular glues with CDK12/cycK and DDB1 by MST was established using published procedures for PROTAC interaction with bromodomains and E3 ubiquitin ligases.[38] His8-DDB1-ΔBPB was labeled with the MO-L018 Monolith™ His-tag Labeling Kit RED-tris-NTA 2nd Generation (NanoTemper Technologies) following the instruction manual. 100 nM dye was mixed with 200 nM DDB1 in 50 mM HEPES pH 7.5, 150 mM NaCl, 5% glycerol, 0.05% Tween, and incubated at room temperature for 30 min. […] MST traces were recorded using standard parameters: 5 s MST power off, 30 s MST power on and 5 s MST power off. Measurements were taken at −1 to 0 s (cold region) and 9–10 s (hot region). Data were analyzed using a fitting function derived from the law of mass action:1 [drawing 6] where f(c) is the fluorescence signal (Fnorm) at a given ligand concentration (c), B is Fnorm of fully liganded DDB1 at high ligand concentrations, U is Fnorm of DDB1 alone at low ligand concentrations, Kd is the dissociation constant or binding affinity, cT is the final concentration of DDB1 in the assay (Fig. 3G). For normalization, the data were first transformed using eqn (2) where y is the fraction bound, followed by fitting to eqn (3) (Fig. 5B–E).2 [drawing 7] 3 [drawing 8]

Compound: Cn1cc(-n2cnc3c(NCc4nc5cc(Cl)c(Cl)cc5[nH]4)nc(N4CCOCC4)nc32)cn1 [SR-4835]
- hydrodynamic radius (DLS) (Cdk12/CycK and DDB1ΔB [1]): significantly increased
- cyclin K degradation (immunoblot) (cyclin K): rapidly degrades cyclin K
- retention time in analytical SEC (ternary complex formation) (Cdk12/CycK and DDB1ΔB [2]): reduced retention times

Compound: CN(C)C/C=C/C(=O)Nc1ccc(C(=O)N2CCC[C@@H](Nc3ncc(Cl)c(-c4c[nH]c5ccccc45)n3)C2)cc1 [THZ531, reference compound]
- ability to induce ternary complex (CDK12/cyclin K + DDB1): inability to induce such a complex
